From patent US20190071416A1, “COMPOUNDS FOR TREATMENT OF CANCER AND EPIGENETICS” (Agency For Science, Technology and Research, priority 2015, published 2019)
Read-outs that look alike come from different tables or passages of the source.

Assays:
SMYD3 [1] = biological target: T1, SMYD3 (Homo sapiens, UniProt Q9H7B4); test: Target engagement assay, SMYD3 levels by Western blot in HEK293 cells transfected with Myc-SMYD3; assay type: cell-based; parameters: host or cells: HEK293 (ATCC); conditions: 25 μM, overnight, HEK293 transiently transfected with Myc-tagged SMYD3
T1 sequence (Q9H7B4 1-428): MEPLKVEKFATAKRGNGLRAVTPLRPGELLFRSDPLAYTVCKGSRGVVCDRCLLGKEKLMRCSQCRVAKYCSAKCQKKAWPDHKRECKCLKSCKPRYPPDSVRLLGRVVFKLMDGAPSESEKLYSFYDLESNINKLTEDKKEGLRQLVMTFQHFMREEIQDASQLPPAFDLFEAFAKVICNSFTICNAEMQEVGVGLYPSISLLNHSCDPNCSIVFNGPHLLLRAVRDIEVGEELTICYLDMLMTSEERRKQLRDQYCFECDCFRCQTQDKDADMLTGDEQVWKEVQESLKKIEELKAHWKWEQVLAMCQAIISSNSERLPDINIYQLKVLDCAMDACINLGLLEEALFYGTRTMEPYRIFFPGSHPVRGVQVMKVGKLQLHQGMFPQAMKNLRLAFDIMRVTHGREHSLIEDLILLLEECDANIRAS
Description: The target engagement assay was performed with HEK293 that is engineered to overexpress SMYD3 (HEK293-SMYD3). The plasmid SMYD3 (Myc-DDK-tagged-Human SET and MYND domain containing 3) was purchased from Origene (RC230064) and transfected with lipofectamine 2000 (Invitrogen) into HEK293 (ATCC). The cell line is cultured in Eagle's MEM media supplemented with fetal bovine serum and geneticin (Invitrogen). Presence of over-expressed SMYD3 is confirmed with western blot with antibody against SMYD3 and the MYC tag as well as with RT-PCR with SMYD3 primers.
(§1) The cells were seeded in 6 well plates. After seeding for 24 h, the cells were treated with either DMSO or 25 μM compound and incubated for 24 hr. The cells were trypsinized and the lysate was extracted with RIPA buffer (Santa Cruz). The total protein concentration of lysate is quantified using the standard Bradford assay (Biorad protein assay, microplate standard assay).
Western blot analysis was performed using antibody against SMYD3 in HEK293 cells over-expressing SMYD3 (HEK293-SMYD3) treated with compound at different time points. 15.0 μg of cell lysate was diluted in 2× Laemmli sample buffer (Bio-Rad) and boiled at 100° C. on heat block for 5 min. Lysates were separated using NuPAGE® 4-12% Bis-Tris precast polyacrylamide gels (Lifetech) at 200 V, […] for 40 min. […]

A549 = test: Cell proliferation assay (CellTiter-Glo), A549; assay type: cell-based; conditions: Homo sapiens, A549, 72 h; 3 days
Description: The cell proliferation assays were tested in several cell lines, including HepG2,HCT116, A549, HPAF-II, CFPAC-1,HuH7, SNU398,Hep3B, and HEK293. All cell lines are from ATCC. HepG2, HPAF-II and HEK293 are cultured in Eagle's MEM media supplemented with fetal bovine serum. HCT116 is cultured in McCoy media supplemented with fetal bovine serum. Huh-7 is cultured in DMEM low glucose (1000 mg/L glucose) with 10% FBS, 1% L-Glutamate and 1% Penicillin/Streptomycin. SNU398 is cultured in RPMI with 10% FBS with 1% L-Glutamate and 1% Penicillin/Streptomycin. Hep3B is cultured in Eagle's MEM with 10% FBS, 1% L-Glutamate and 1% Penicillin/Streptomycin. A549 is cultured in RPMI media supplemented with fetal bovine serum while CFPAC-1 is cultured in IMDM media supplemented with fetal bovine serum. All media and serum are purchased from Gibco (Lifetech). All cells were grown in a temperature controlled incubator at 37° C. and 5% CO2.
Cell proliferation assay was performed using CellTiter-Glo Luminescent Cell Viability Assay (Promega) following manufacturer's instructions. The cell-line of interest was treated with compounds that were serial diluted in its respective media. Plates were incubated for 3 days at 37° C. in 5% CO2. After 3 days, an equal volume of Cell Titer Glo reagent was added. Plates were rocked on a rotator for 2 h. 100 μL of each well were transferred to a 96-well opaque plate, and luminescence emitted was measured with the Tecan Safire II.

SMYD3 [2] = biological target: T1, SMYD3; test: SMYD3 biochemical assay (MTase-Glo, MAP3K2 peptide substrate)
In short: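 Luminescent readout of SAH production (coupled SAH→ATP conversion, MTase-Glo) after SMYD3 reacted 30 min at room temperature with 1.0 µM SAM and 10 µM MAP3K2 peptide, both final. Non-linear regression gave IC50 values.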

[3] = system: MAP3K2 methylation (me2/me3-Lys 260); test: SMYD3 mediated methylation of MAP3K2 in HEK293 cells (Western blot); assay type: cell-based, Human; conditions: 25 μM
Description: as §1
Western blot analysis for detecting methylated MAP3K2 was carried out using a customized Anti-me2/me3-Lys 260 MAP3K2 at 1:500 and the total MAP3K2 was detected using Anti-MEKK2 (AB33918) using a 1:10,000 dilution.
B019 was further tested for its ability to inhibit SMYD3 in cells through its effects on cellular MAP3K2 methylation. This was performed using an antibody against the MAP3K2 (me2/me3), Anti-ME2/ME3-K260-MAP3K2 (1:500) and total MAP3K2, Anti-MEKK2 #ab33918 (1:10,000).

reduction in SMYD3 levels (SMYD3 [1]): 35-37% | GI50 (A549): 28.8 µM | IC50 (SMYD3 [2]; Table 1, MAP3K2 peptide as substrate, read-out: IC50): 0.0595 µM | IC50 (SMYD3 [2]; Table 2, read-out: Biochemical assay IC50): 0.0595 µM | IC50 (SMYD3 [2]; Table 3, MTase assay, MAP3K2 peptide substrate, read-out: IC50): 0.06 µM
Compound: CCCOC(=O)N1CCN(C(=O)c2ccc3c(Cl)cc(-c4ccccc4)nc3c2)C[C@H]1C [B019, Propyl (R)-4-(4-chloro-2-phenylquinoline-7-carbonyl)-2-methylpiperazine-1-carboxylate]
inhibition of methylation of MAP3K2 in cells [3]: inhibited | total MAP3K2 levels [3]: without changing
